Measured values as given in patent US6495699B2, “Metalloproteinase inhibitors, pharmaceutical compositions containing them, and their use” (Agouron Pharmaceuticals Inc., priority 1996, dated 2002).
Counter-ions that a name gives are not always drawn.

Columns and labels:
[1] = biological target: T1, human collagenase-3 (Coll3) (Homo sapiens, UniProt P45452); assay: Fluorometric MCA-peptide hydrolysis assay, collagenase-3 (Coll3); assay type: biochemical; details: apparent Ki; 10 μM MCA peptide substrate, 37° C., pH 7.5; read-out: Coll3 (Ki,app)
T1 construct: the catalytic domain was liberated by treatment with 2 mM APMA at room temperature overnight; ubiquitin (N, cleaved yes); made in house; host or cells: E. coli
Experimental: The propeptide and catalytic domain of human collagenase-3 (Coll3) was expressed in E. coli as an N-terminal fusion protein with ubiquitin. After purification of the fusion from inclusion bodies, the catalytic domain was liberated by treatment with 2 mM APMA at room temperature overnight. Final purification was completed using copper chelate chromatography.
(§1) Assays were performed in assay buffer (50 mM Tricine pH 7.5, 200 mM sodium chloride, 10 mM calcium chloride, 0.5 mM zinc acetate containing 2% dimethyl sulfoxide (DMSO)) once the substrate and inhibitor were diluted into it. Stock solutions of inhibitors were prepared in 100% DMSO. Stock solutions of the substrate were prepared in 100% DMSO at a concentration of 6 mM.
(§2) The assay method was based on the hydrolysis of MCA-Pro-Leu-Gly-Leu-DPA-Ala-Arg-NH2 (American Peptide Co.) at 37° C. (see Knight, C. G. et al., FEBS, 1992, 296, 263-266). The fluorescence changes were monitored with a Perkin-Elmer LS-50B fluorimeter using an excitation wavelength of 328 nm and an emission wavelength of 393 nm. The substrate concentration used in the assays was 10 μM. The inhibitor was diluted into the assays from a solution in 100% DMSO, and controls substituted an equal volume of DMSO so that the final DMSO concentration from inhibitor and substrate dilution in all assays was 2%. […] Proper determination of steady-state rates of substrate cleavage required assay lengths of 60 minutes to allow for complete equilibration of the enzyme-inhibitor complex.
The Km for the MCA peptide substrate with the matrix metalloproteinases is quite high and exceeds its solubility under assay conditions. Consequently, the apparent Ki (Ki,app) was determined to describe the strength of inhibition. However, in this case, Ki,app would be essentially equal to Ki since [S]<<Km. For the determination of Ki,app, the concentration of the inhibitor was varied at a constant and low concentration of substrate and the steady-state rates of fluorescence change determined. […] For slow-binding inhibitors, onset of inhibition curves were collected for at least 45 minutes so that equilibrium was established. Steady-state rates of fluorescence change were obtained by fitting a curve to an equation for a single exponential decay containing a linear phase. The fitted value of the linear phase was taken as the steady-state rate. The steady-state rates were fitted to the Michaelis equation describing competitive inhibition by non-linear methods. Data resulting from tight-binding inhibition was analyzed, and Ki,app determined by fitting the data to the tight-binding equation of Morrison (Biochem. Biophys. Acta, vol. 185, pp. 269-286 (1969)) by non-linear methods.

[2] = biological target: T2, catalytic domain of human stromelysin (Hsln) (Homo sapiens, UniProt P08254); assay: Fluorometric MCA-peptide hydrolysis assay, stromelysin (Hsln); assay type: biochemical; details: apparent Ki; 10 μM MCA peptide substrate, 37° C., pH 7.5; read-out: Hsln (Ki,app)
T2 construct: The catalytic domain of human stromelysin (Hsln) was obtained by expression and purification of a C-terminally truncated prostromelysin-1; made in house; host or cells: E. coli BL21
Experimental: The catalytic domain of human stromelysin (Hsln) was obtained by expression and purification of a C-terminally truncated prostromelysin-1 from E. coli host BL21 (see Marcy et al. Biochem., 1991, 30, 6476). The subsequent activation of the mature form (Hsln) was completed with 2 mM APMA for 1 hour at 37° C., followed by separation using a sizing column.
as §1, §2
(§3) The Km for the MCA peptide substrate with the matrix metalloproteinases is quite high and exceeds its solubility under assay conditions. Consequently, the apparent Ki (Ki,app) was determined to describe the strength of inhibition. However, in this case, Ki,app would be essentially equal to Ki since [S]<<Km. For the determination of Ki,app, the concentration of the inhibitor was varied at a constant and low concentration of substrate and the steady-state rates of fluorescence change determined. In most cases absorptive quench due to the presence of ligand was not observed. For slow-binding inhibitors, onset of inhibition curves were collected for at least 45 minutes so that equilibrium was established. Steady-state rates of fluorescence change were obtained by fitting a curve to an equation for a single exponential decay containing a linear phase. The fitted value of the linear phase was taken as the steady-state rate. The steady-state rates were fitted to the Michaelis equation describing competitive inhibition by non-linear methods. Data resulting from tight-binding inhibition was analyzed, and Ki,app determined by fitting the data to the tight-binding equation of Morrison (Biochem. Biophys. Acta, vol. 185, pp. 269-286 (1969)) by non-linear methods.

Human matrilysin (Matr) = biological target: T3, Human matrilysin (Matr) (Homo sapiens, UniProt P09237); assay: Fluorometric MCA-peptide hydrolysis assay, matrilysin (Matr); assay type: biochemical; details: apparent Ki; 10 μM MCA peptide substrate, 37° C., pH 7.5; read-out: Matr (Ki,app)
T3 construct: the catalytic domain was liberated by treatment with 2 mM APMA at 37° C. for 2 hours; ubiquitin (cleaved yes); made in house; host or cells: E. coli
T3 sequence (P09237 95-267): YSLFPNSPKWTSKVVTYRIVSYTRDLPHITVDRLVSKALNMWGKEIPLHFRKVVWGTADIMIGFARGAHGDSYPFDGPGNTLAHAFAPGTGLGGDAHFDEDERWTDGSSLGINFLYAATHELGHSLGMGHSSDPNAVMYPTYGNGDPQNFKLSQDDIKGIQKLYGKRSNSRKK
Experimental: Human matrilysin (Matr) was expressed in E. coli as a fusion protein with ubiquitin. After purification of the matrilysin/ubiquitin fusion from inclusion bodies, the catalytic domain was liberated by treatment with 2 mM APMA at 37° C. for 2 hours. Final purification was complete using copper chelate chromatography.
as §1, §2, §3

[3] = biological target: T4, human progelatinase A (GelA), catalytic and fibronectin-like portion (Homo sapiens, UniProt P08253); assay: Fluorometric MCA-peptide hydrolysis assay, gelatinase A (GelA); assay type: biochemical; details: apparent Ki; 10 μM MCA peptide substrate, 37° C., pH 7.5
T4 construct: The catalytic and fibronectin-like portion of human progelatinase A (GelA) was expressed as a fusion protein with ubiquitin; ubiquitin; made in house; host or cells: E. coli
Experimental: The catalytic and fibronectin-like portion of human progelatinase A (GelA) was expressed as a fusion protein with ubiquitin in E. Coli. Assays were carried out on autocatalytically activated material.
as §1, §2, §3

T2 sequence (P08254 100-272 limits assumed): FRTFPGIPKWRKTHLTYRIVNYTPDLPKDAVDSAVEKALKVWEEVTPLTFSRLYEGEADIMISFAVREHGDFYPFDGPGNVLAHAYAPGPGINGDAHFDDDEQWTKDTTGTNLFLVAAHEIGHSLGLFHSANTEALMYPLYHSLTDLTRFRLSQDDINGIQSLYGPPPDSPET
T4 sequence (P08253 110-465 limits assumed): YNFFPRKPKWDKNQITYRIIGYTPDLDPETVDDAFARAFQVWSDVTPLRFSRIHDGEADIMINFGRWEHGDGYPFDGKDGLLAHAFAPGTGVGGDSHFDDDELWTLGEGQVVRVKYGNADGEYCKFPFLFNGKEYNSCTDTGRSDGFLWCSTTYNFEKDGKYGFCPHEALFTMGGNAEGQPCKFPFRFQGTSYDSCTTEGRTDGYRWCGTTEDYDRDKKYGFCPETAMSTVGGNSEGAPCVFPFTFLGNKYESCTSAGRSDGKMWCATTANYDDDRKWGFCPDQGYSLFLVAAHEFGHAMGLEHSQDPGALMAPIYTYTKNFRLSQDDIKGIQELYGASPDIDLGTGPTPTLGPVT

Structure (SMILES)	melting point	Ki [1] [nM]	Ki [2] [nM]	Ki (Human matrilysin (Matr)) [nM]	GelA (Ki,app) [3] [nM]
CC(C)(C)[C@H](NC(=O)[C@@H](CC(=O)O)n1ccc(-c2ccc(-c3ccc(C#N)cc3)cc2)c1)C(=O)Nc1ccncc1 (as salt: salt) [Example 5(d), 3(R)-[3-(4′-Cyanobiphenyl-4-yl)-1H-pyrrol-1-yl]-N-[2,2-dimethyl-1(S)-(pyridin-4-ylcarbamoyl)propyl]succinamic Acid Formate Salt]	134 to 136 °C	–	–	–	–
COC(=O)c1ccc(NC(=O)[C@H](CC(C)C)NC(=O)[C@@H](CC(=O)O)n2ccc(-c3ccc(-c4ccccc4)cc3)c2)cc1 [Example 1(k), 4-[2S-[2(R)-[3-(Biphenyl-4-yl)-1H-pyrrol-1-yl]-3-carboxy-propionylamino]-4-methyl-pentanoylamino]benzoic Acid Methyl Ester]	209 to 211 °C	40	0.15	11	1.9
CC(C)(O)C(CO)NC(=O)[C@@H](CC(=O)O)n1ccc(-c2ccc(-c3ccccc3)cc2)c1 (stereo in doubt) [Example 1(i), 3(R)-[3-(Biphenyl-4-yl)-1H-pyrrol-1-yl]-N-[2-hydroxy-1(S)-(hydroxymethyl)-2-methylpropyl]succinamic Acid]	150 to 152 °C	89.6	113	–	8
CC(C)(C)[C@H](NC(=O)C(CC(=O)O)c1ccsc1)C(=O)Nc1ccncc1 (stereo in doubt) [Example 17(c), N-[2,2-Dimethyl-1(S)-(pyridin-4-ylcarbamoyl)-propyl]-3(R)-thien-3-yl-succinamic Acid]	205 °C (dec.)	–	935	156	157
O=C(C[C@H](C(=O)N[C@H]1Cc2cn(c3ccccc23)CCCCCCNC1=O)n1cccc1)NO [Example 8(c), N ^4Hydroxy-N^1-(9-oxo-1,8-diaza-tricyclo[10.6.1.0^13,18]nonadeca-12(19),13,15,17-tetraen-10S-yl)-3(R)-1H-(pyrrol-1-yl)succinamide]	158 to 165 °C	–	–	–	–
CCC[C@H](C(=O)O)[C@H](C(=O)N[C@H](CO)C(C)(C)C)n1ccc(-c2ccc(-c3ccc(C#N)cc3)cc2)c1 [Example 10(c), 2S-[1R-(3-(4′-Cyanobiphenyl-4-yl)-1H-pyrrol-1-yl)-1-(2,2-dimethyl-1(S)-(hydroxymethyl)propylcarbamoyl)-methyl]-pentanoic Acid]	130 to 132 °C	50	40	2180	22
N#Cc1ccc(-c2ccc(-c3ccn([C@H](CC(=O)O)C(=O)N[C@H](CO)Cc4ccccc4)c3)cc2)cc1 [Example 4(a), N-(1(S)-Benzyl-2-hydroxyethyl)-3(R)-[3-(4′-cyanobiphenyl-4-yl)-1H-pyrrol-1-yl]succinamic Acid]	189 to 192 °C	2.7	30	5200	1.3
CC(C)(C)[C@@H](CO)NC(=O)[C@@H](CC(=O)O)n1ccc(-c2ccc(-c3ccc(C(N)=O)cc3)cc2)c1 [Example 4(c), 3(R)-[3-(4′-Carbamoylbiphenyl-4-yl)-1H-pyrrol-1-yl]-N-(1(S)-hydroxymethyl-2,2-dimethyl-propyl)succinamic Acid]	192 to 194 °C	–	64	2530	7.2
CC(C)(C)[C@@H](CO)NC(=O)C(CC(=O)O)n1cnc(-c2ccc(-c3ccccc3)cc2)c1 (mixture of isomers) [Example 18(b), 3(RS)-(3-Biphenyl-4-yl-1H-imidazol-1-yl)-N-(2,2-dimethyl-1(S)-hydroxymethylpropyl)succinamic Acid]	145 to 150 °C	–	3000	> 100000	–
CCCc1ccc(-c2ccn([C@H](CC(=O)O)C(=O)N[C@H](C(=O)NC)C(C)(C)C)c2)cc1 [Example 1(j), N-[2,2-Dimethyl-1(S)-(methylcarbamoyl)propyl]-3(R)-[3-(4-propylphenyl)-1H-pyrrol-1-yl]succinamic Acid]	104 to 106 °C	9.43	133	–	1.43
CC(C)C[C@H](NC(=O)[C@@H](CC(=O)O)n1ccc(-c2ccc(-c3ccccc3)cc2)c1)C(C)O (mixture of isomers) [Example 3]	–	180	150	1250	58
O=C(O)C[C@H](C(=O)N[C@H](CO)Cc1ccccc1)n1ccc(-c2ccc(-c3ccccc3)cc2)c1 [1(a), N-(1(S)-Benzyl-2-hydroxyethyl)-3(R)-[3-(biphenyl-4-yl)-1H-pyrrol-1-yl]succinamic Acid]	–	30	65	1000	5.4
CC(C)C[C@H](NC(=O)[C@@H](CC(=O)O)c1ccn(-c2ccc(-c3ccc(C#N)cc3)cc2)c1)c1ncc[nH]1 [Example 14(c), 3(S)-[1-(4′-Cyanobiphenyl-4-yl)-1H-pyrrol-3-yl]-N-[1(S)-(1H-imidazol-2-yl)-3-methylbutyl]succinamic Acid]	206 to 210 °C (dec.)	–	17.7	–	0.044
CCC[C@H](C(=O)O)[C@H](C(=O)N[C@H](CO)Cc1ccccc1)n1ccc(-c2ccc(-c3ccccc3)cc2)c1 [Example 10(a), 2S-[1R-(1(S)-Benzyl-2-hydroxyethylcarbamoyl)-(3-biphenyl-4-yl-1H-pyrrol-1-yl)-methyl]-pentanoic Acid]	179 to 181 °C (dec.)	50	–	617	3.3
O=C(O)C[C@H](C(=O)N[C@H](CO)Cc1ccccc1)n1cc(-c2ccc(-c3ccccc3)cc2)cn1 [Example 16, N-(1(S)-Benzyl-2-hydroxyethyl)-3(R)-[4-(biphenyl-4-yl)-pyrazol-1-yl]succinamic Acid]	154 to 159 °C	–	1500	63000	81
